Tested on: 565726-208-R1-J5-PDC complex spheroids, growth inhibition
Test: Anticancer human tumor 565726-208-R1-J5-PDC patient-derived pancreatic adenocarcinoma cell line growth inhibition [RAS]
Conditions: for IC50: curve of first compound; for viability, T/C: stronger effect = lower value
Procedure, shortened: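 Multi-cell-type spheroids: tumor cells plus HUVEC endothelial cells and mesenchymal stem cells. RAS-pathway inhibitors were combined with targeted agents, each dosed in half-log steps down from clinical Cmax, or from 10 microM when Cmax was unknown.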
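Note: spheroids exposed to compounds for seven days before readout.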
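Throughout, for viability, T/C: 100% = DMSO vehicle control viability.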

For CC(=O)OC12COC1CC(O)C1(C)C(=O)C(O)C3=C(C)C(OC(=O)C(O)C(NC(=O)OC(C)(C)C)c4ccccc4)CC(O)(C(OC(=O)c4ccccc4)C21)C3(C)C (configuration not stated) + CCn1c(-c2cccnc2C(C)OC)c2c3cc(ccc31)N1CCOC(CC(NC(=O)C(C(C)C)N(C)C(=O)C3(F)CCN(C(=O)C#CC(C)(C)N(C)C)CC3)C(=O)N3CCCC(N3)C(=O)OCC(C)(C)C2)C1, the IC50 (second compound 0.000949 µM) was less than 31.6 nM, the IC50 (second compound 0.003 µM) was less than 31.6 nM and the IC50 (second compound 0.00949 µM) was less than 31.6 nM. It also gave an IC50 (second compound 0.03 µM) of less than 31.6 nM, an IC50 (second compound 0.0949 µM) of less than 31.6 nM and an IC50 (second compound 0.3 µM) of less than 31.6 nM. The viability, T/C (second compound 0.000949 µM, first compound 0.0316 µM) was 15.9%, the viability, T/C (second compound 0.000949 µM, first compound 0.1 µM) was 14.2% and the viability, T/C (second compound 0.000949 µM, first compound 0.316 µM) was 15.5%. It also gave a viability, T/C (second compound 0.000949 µM, first compound 1 µM) of 16.5%, a viability, T/C (second compound 0.000949 µM, first compound 3.16 µM) of 19.8% and a viability, T/C (second compound 0.000949 µM, first compound 10 µM) of 21.5%. It also gave a viability, T/C (second compound 0.003 µM, first compound 0.0316 µM) of 17.4%, a viability, T/C (second compound 0.003 µM, first compound 0.1 µM) of 16.5% and a viability, T/C (second compound 0.003 µM, first compound 0.316 µM) of 16.2%. For the same molecule, the viability, T/C (second compound 0.003 µM, first compound 1 µM) was 14.6%, the viability, T/C (second compound 0.003 µM, first compound 3.16 µM) was 19.8% and the viability, T/C (second compound 0.003 µM, first compound 10 µM) was 22.8%. It also gave a viability, T/C (second compound 0.00949 µM, first compound 0.0316 µM) of 17.3%, a viability, T/C (second compound 0.00949 µM, first compound 0.1 µM) of 15.3% and a viability, T/C (second compound 0.00949 µM, first compound 0.316 µM) of 15.9%. The viability, T/C (second compound 0.00949 µM, first compound 1 µM) was 15.7%, the viability, T/C (second compound 0.00949 µM, first compound 3.16 µM) was 20.1% and the viability, T/C (second compound 0.00949 µM, first compound 10 µM) was 22.8%. The viability, T/C (second compound 0.03 µM, first compound 0.0316 µM) was 16.3%, the viability, T/C (second compound 0.03 µM, first compound 0.1 µM) was 16.2% and the viability, T/C (second compound 0.03 µM, first compound 0.316 µM) was 15%. The viability, T/C (second compound 0.03 µM, first compound 1 µM) was 17%, the viability, T/C (second compound 0.03 µM, first compound 3.16 µM) was 21.6% and the viability, T/C (second compound 0.03 µM, first compound 10 µM) was 25.4%. For the same molecule, the viability, T/C (second compound 0.0949 µM, first compound 0.0316 µM) was 15.3%, the viability, T/C (second compound 0.0949 µM, first compound 0.1 µM) was 14.8% and the viability, T/C (second compound 0.0949 µM, first compound 0.316 µM) was 13.2%. For the same molecule, the viability, T/C (second compound 0.0949 µM, first compound 1 µM) was 15.3%, the viability, T/C (second compound 0.0949 µM, first compound 3.16 µM) was 20.2% and the viability, T/C (second compound 0.0949 µM, first compound 10 µM) was 24.3%. The viability, T/C (second compound 0.3 µM, first compound 0.0316 µM) was 14.9%, the viability, T/C (second compound 0.3 µM, first compound 0.1 µM) was 15.8% and the viability, T/C (second compound 0.3 µM, first compound 0.316 µM) was 14.4%. The viability, T/C (second compound 0.3 µM, first compound 1 µM) was 13.9%, the viability, T/C (second compound 0.3 µM, first compound 3.16 µM) was 17.6% and the viability, T/C (second compound 0.3 µM, first compound 10 µM) was 26.2%.
